In ChEMBL document CHEMBL1137536, “Dipeptidyl aspartyl fluoromethylketones as potent caspase inhibitors: peptidomimetic replacement of the P(2) amino acid by 2-aminoaryl acids and other non-natural amino acids” (Bioorg Med Chem Lett, 2007):

Key:
HeLa = assay: Inhibition of TNF-alpha-induced apoptosis in HeLa cells assessed as cell protection; conditions: Homo sapiens
Caspase-1 = target: T1, Caspase-1 (Homo sapiens, UniProt P29466); assay: Inhibition of human caspase 1
T1 sequence (P29466 whole entry): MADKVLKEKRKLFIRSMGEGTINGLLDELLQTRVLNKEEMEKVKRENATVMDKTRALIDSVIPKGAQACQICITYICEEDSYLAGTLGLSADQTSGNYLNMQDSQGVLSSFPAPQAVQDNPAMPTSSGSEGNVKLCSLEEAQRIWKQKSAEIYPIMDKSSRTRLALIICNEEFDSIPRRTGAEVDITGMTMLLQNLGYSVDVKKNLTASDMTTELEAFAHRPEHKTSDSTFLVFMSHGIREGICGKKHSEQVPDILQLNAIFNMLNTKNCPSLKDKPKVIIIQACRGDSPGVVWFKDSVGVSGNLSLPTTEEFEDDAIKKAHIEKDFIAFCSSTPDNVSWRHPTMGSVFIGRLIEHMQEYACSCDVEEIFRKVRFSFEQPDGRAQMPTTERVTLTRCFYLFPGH

Caspase-8 = Caspase-8 (Homo sapiens, UniProt Q14790); assay: Inhibition of human caspase 8
Caspase-6 = target: T2, Caspase-6 (Homo sapiens, UniProt P55212); assay: Inhibition of human caspase 6
T2 sequence (P55212 whole entry): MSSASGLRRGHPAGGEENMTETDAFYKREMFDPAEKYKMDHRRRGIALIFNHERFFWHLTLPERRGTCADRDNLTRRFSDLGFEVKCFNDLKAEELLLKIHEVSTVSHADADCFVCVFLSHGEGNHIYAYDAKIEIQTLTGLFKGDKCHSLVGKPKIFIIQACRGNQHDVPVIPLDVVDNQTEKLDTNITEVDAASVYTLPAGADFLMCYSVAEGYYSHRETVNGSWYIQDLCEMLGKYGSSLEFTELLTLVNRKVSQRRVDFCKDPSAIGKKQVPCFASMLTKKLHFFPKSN

Caspase-3 = target: T3, Caspase-3 (Homo sapiens, UniProt P42574); assay: Inhibition of human recombinant caspase 3 by fluorometric assay
T3 sequence (P42574 whole entry): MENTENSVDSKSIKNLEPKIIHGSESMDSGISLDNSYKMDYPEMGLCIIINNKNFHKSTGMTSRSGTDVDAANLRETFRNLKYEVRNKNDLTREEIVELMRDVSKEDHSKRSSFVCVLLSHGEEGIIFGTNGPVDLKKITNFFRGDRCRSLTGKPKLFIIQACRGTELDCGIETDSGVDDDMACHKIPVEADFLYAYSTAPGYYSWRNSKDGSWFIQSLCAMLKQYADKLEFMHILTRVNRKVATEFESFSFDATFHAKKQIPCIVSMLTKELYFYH

Caspase-9 = target: T4, Caspase-9 (Homo sapiens, UniProt P55211); assay: Inhibition of human caspase 9
T4 sequence (P55211 whole entry): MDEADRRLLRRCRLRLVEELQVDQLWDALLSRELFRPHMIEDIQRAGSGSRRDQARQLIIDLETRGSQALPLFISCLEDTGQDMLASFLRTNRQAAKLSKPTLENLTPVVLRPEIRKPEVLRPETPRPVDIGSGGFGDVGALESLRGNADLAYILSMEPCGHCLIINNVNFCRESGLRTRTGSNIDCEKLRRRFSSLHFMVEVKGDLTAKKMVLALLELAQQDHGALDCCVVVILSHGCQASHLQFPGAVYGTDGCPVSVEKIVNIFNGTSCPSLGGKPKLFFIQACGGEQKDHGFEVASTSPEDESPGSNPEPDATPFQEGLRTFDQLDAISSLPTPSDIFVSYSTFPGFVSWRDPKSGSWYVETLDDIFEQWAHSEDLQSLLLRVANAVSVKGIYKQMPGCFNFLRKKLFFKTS

Caspase-7 = target: T5, Caspase-7 (Homo sapiens, UniProt P55210); assay: Inhibition of human caspase 7
T5 sequence (P55210 whole entry): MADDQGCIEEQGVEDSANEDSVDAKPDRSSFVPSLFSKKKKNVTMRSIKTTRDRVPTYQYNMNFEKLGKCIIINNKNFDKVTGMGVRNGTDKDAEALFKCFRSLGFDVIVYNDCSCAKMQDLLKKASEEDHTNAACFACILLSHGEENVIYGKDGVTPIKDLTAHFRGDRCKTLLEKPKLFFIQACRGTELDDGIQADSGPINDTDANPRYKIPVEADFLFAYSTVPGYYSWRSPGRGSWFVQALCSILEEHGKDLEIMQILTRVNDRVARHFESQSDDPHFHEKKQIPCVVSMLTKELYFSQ

Sequence of Caspase-8 (Q14790 217-374 limits assumed): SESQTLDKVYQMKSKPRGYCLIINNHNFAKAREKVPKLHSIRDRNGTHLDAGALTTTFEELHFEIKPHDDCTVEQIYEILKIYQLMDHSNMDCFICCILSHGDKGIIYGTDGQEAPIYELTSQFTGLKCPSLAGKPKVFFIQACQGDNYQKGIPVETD
Sequence of Caspase-8 (Q14790 385-479 limits assumed): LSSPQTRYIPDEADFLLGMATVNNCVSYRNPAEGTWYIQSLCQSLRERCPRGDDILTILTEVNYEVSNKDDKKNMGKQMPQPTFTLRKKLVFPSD

Structure (SMILES): O=C(O)CC(NC(=O)c1sccc1NC(=O)OCc1ccccc1)C(=O)CF (stereo not given)
- IC50 (HeLa): > 2000 nM

Structure (SMILES): O=C(O)CN(C(=O)CF)C(=O)[C@H]1CCN1C(=O)OCc1ccccc1
- IC50 (HeLa): 1700 nM

Structure (SMILES): CC(C)[C@H](NC(=O)OCc1ccccc1)C(=O)Nc1ccccc1C(=O)NC(CC(=O)O)C(=O)CF (stereo not given in full)
- IC50 (Caspase-1): 12 nM
- IC50 (Caspase-8): 6 nM
- IC50 (Caspase-6): 61 nM
- IC50 (Caspase-3): 33 nM
- IC50 (Caspase-9): 6 nM
- IC50 (Caspase-7): 11 nM

Structure (SMILES): O=C(O)CC(NC(=O)c1ccccc1NC(=O)OCc1ccccc1)C(=O)CF (stereo not given)
- IC50 (HeLa): 4000 nM

Structure (SMILES): O=C(O)CN(C(=O)CF)C(=O)[C@H]1CCCN1C(=O)OCc1ccccc1
- IC50 (HeLa): > 2000 nM
